Laboratory results as given in a compilation of properties of binary mixtures (doi:10.1016/j.molliq.2016.05.033).

Test: xn = mol fraction of the nth substance listed
Conditions: 101 kPa

CCCC[n+]1ccn(C)c1.F[B-](F)(F)F + CNc1ccccc1
x2 = 0
Conditions | speed of sound [m/s]
293.15 K | 1577.5
303.15 K | 1553.1
313.15 K | 1529.6
323.15 K | 1506.8

CNc1ccccc1 + CCCC[n+]1ccn(C)c1.F[B-](F)(F)F
speed of sound [m/s]
Conditions | x1 = 0.0974 | x1 = 0.2093 | x1 = 0.2979 | x1 = 0.3968 | x1 = 0.5009 | x1 = 0.592 | x1 = 0.697 | x1 = 0.7972 | x1 = 0.8999 | x1 = 1
293.15 K | 1578.7 | – | – | 1584.9 | – | 1594.9 | 1602.1 | 1601.6 | 1594.2 | 1582.7
303.15 K | 1554.2 | – | – | 1560.6 | 1562 | 1566.3 | 1571.4 | 1570 | 1559.5 | –
313.15 K | – | 1531.6 | 1532.2 | 1534.8 | – | 1537.9 | 1540.1 | 1537.7 | 1524.9 | 1511.6
323.15 K | 1507.2 | 1507.9 | 1508.4 | 1509.7 | 1510.5 | – | – | 1504.7 | – | 1476.4
